How the values were obtained:
THLE-2 = assay: Cytotoxicity against human THLE-2 cells assessed as cell viability incubated for 72 hrs by cell titer glo assay; type: cell-based; details: THLE-2, 72 h
KG-1 = assay: Antiproliferative activity against human KG-1 cells assessed as reduction in cell viability incubated for 72 hrs by cell titer glo assay; type: functional, cell-based; details: KG-1, 72 h
[1] = Selectivity index, ratio of IC50 for cytotoxicity against human THLE-2 cells to IC50 for antiproliferative activity against human KG-1 cells

In the case of `O=C1CCC(N2Cc3cc(CNC(=O)Nc4ccccc4)ccc3C2=O)C(=O)N1` (stereo not given), the IC50 (THLE-2) is reported as 0.06 µM, the IC50 (KG-1) is reported as 0.015 µM and the “Ratio IC50” value [1] is reported as 4.
Work on `CC(C)(C(=O)NCc1ccc2c(c1)CN(C1CCC(=O)NC1=O)C2=O)c1ccccc1` (stereo not given) yielded an IC50 (THLE-2) greater than 10 µM and an IC50 (KG-1) greater than 10 µM.

From ChEMBL document CHEMBL4706692, “CC-90009: A Cereblon E3 Ligase Modulating Drug That Promotes Selective Degradation of GSPT1 for the Treatment of Acute Myeloid Leukemia” (J Med Chem, 2021)
